{
  "source": "paper PMC5218480",
  "about": "(PLoS ONE, 2017)",
  "tested_on": "MV-4-11 cells",
  "assay": "Gene expression microarray analysis (Affymetrix PrimeView) and GSEA",
  "assay_type": "cell-based, human",
  "set-up": "RFU PODN (11730768_x_at) / Fold change /veh PODN (11730768_x_at) / RFU LINC00158 (11744669_a_at) / Fold change /veh LINC00158 (11744669_a_at) / RFU DUSP10 (11751237_a_at) / Fold change /veh DUSP10 (11751237_a_at) / RFU ID3 (11757404_x_at) / Fold change /veh ID3 (11757404_x_at) / RFU PLEKHG5 (11737974_s_at) / Fold change /veh PLEKHG5 (11737974_s_at) / RFU LRRC4B (11730491_at) / Fold change /veh LRRC4B (11730491_at) / RFU GIMAP4 (11747438_a_at) / Fold change /veh GIMAP4 (11747438_a_at) / RFU KRT8 (11758183_x_at) / Fold change /veh KRT8 (11758183_x_at) / RFU CNN1 (11734310_a_at) / Fold change /veh CNN1 (11734310_a_at) / RFU VPS37D (11726825_at) / Fold change /veh VPS37D (11726825_at) / RFU C10orf10 (11716522_x_at) / Fold change /veh C10orf10 (11716522_x_at) / RFU KIR2DL2 /// KIR2DL4 /// KIR2DL5A /// KIR2DL5B /// KIR2DS1 /// KIR2DS2 /// KIR2DS3 /// KIR2DS4 /// KIR3DL3 /// KIR3DL3 /// KIR3DS1 (11738374_at) / Fold change /veh KIR2DL2 /// KIR2DL4 /// KIR2DL5A /// KIR2DL5B /// KIR2DS1 /// KIR2DS2 /// KIR2DS3 /// KIR2DS4 /// KIR3DL3 /// KIR3DL3 /// KIR3DS1 (11738374_at) / RFU C1QL1 (11718748_at) / Fold change /veh C1QL1 (11718748_at) / RFU TMPRSS4 (11747572_a_at) / Fold change /veh TMPRSS4 (11747572_a_at) / RFU HAMP (11756126_x_at) / Fold change /veh HAMP (11756126_x_at) / RFU RNFT2 (11725882_a_at) / Fold change /veh RNFT2 (11725882_a_at) / RFU NR4A2 (11747474_a_at) / Fold change /veh NR4A2 (11747474_a_at) / RFU ABCC12 (11746883_a_at) / Fold change /veh ABCC12 (11746883_a_at) / RFU TMEM136 (11760407_x_at) / Fold change /veh TMEM136 (11760407_x_at) / RFU CLDN22 /// WWC2 (11732394_at) / Fold change /veh CLDN22 /// WWC2 (11732394_at) / RFU HLA-DPB1 (11760878_x_at) / Fold change /veh HLA-DPB1 (11760878_x_at) / RFU SPINT1 (11716480_a_at) / Fold change /veh SPINT1 (11716480_a_at) / RFU GAP43 (11754022_s_at) / Fold change /veh GAP43 (11754022_s_at) / RFU A4GNT (11735810_at) / Fold change /veh A4GNT (11735810_at) / RFU PRB3 (11715151_x_at) / Fold change /veh PRB3 (11715151_x_at) / RFU TUBB4B (11761932_at) / Fold change /veh TUBB4B (11761932_at) / RFU CAPN14 (11732068_a_at) / Fold change /veh CAPN14 (11732068_a_at) / RFU TMCC2 (11721928_a_at) / Fold change /veh TMCC2 (11721928_a_at) / RFU IRGQ (11745062_a_at) / Fold change /veh IRGQ (11745062_a_at) / RFU FAM174B (11720279_a_at) / Fold change /veh FAM174B (11720279_a_at) / RFU TMPRSS4 (11748680_a_at) / Fold change /veh TMPRSS4 (11748680_a_at) / RFU FAM212B (11763350_a_at) / Fold change /veh FAM212B (11763350_a_at) / RFU PLEKHG5 (11743358_a_at) / Fold change /veh PLEKHG5 (11743358_a_at) / RFU ZSCAN30 (11745921_a_at) / Fold change /veh ZSCAN30 (11745921_a_at) / RFU CMKLR1 (11741424_a_at) / Fold change /veh CMKLR1 (11741424_a_at) / RFU LOC101060620 /// MAPK8IP1 (11723275_at) / Fold change /veh LOC101060620 /// MAPK8IP1 (11723275_at) / RFU SPTSSB (11747773_x_at) / Fold change /veh SPTSSB (11747773_x_at) / RFU PRSS12 (11739890_at) / Fold change /veh PRSS12 (11739890_at) / RFU BIN1 (11741810_x_at) / Fold change /veh BIN1 (11741810_x_at) / RFU WNT11 (11732464_a_at) / Fold change /veh WNT11 (11732464_a_at) / RFU C10orf10 (11716521_a_at) / Fold change /veh C10orf10 (11716521_a_at) / RFU C5orf56 (11738089_at) / Fold change /veh C5orf56 (11738089_at) / RFU CYB561 (11721691_x_at) / Fold change /veh CYB561 (11721691_x_at) / RFU ANKRD19P (11752326_a_at) / Fold change /veh ANKRD19P (11752326_a_at) / RFU OR2T12 /// OR2T33 /// OR2T8 (11738714_s_at) / Fold change /veh OR2T12 /// OR2T33 /// OR2T8 (11738714_s_at) / RFU VCAN (11748164_a_at) / Fold change /veh VCAN (11748164_a_at) / RFU JSRP1 (11732532_at) / Fold change /veh JSRP1 (11732532_at) / RFU KRTAP10-11 (11738290_x_at) / Fold change /veh KRTAP10-11 (11738290_x_at) / RFU MYO3A (11730013_a_at) / Fold change /veh MYO3A (11730013_a_at) / RFU EBF3 (11725865_a_at) / Fold change /veh EBF3 (11725865_a_at) / RFU CAMK2N1 (11719241_x_at) / Fold change /veh CAMK2N1 (11719241_x_at) / RFU C5orf56 (11738088_a_at) / Fold change /veh C5orf56 (11738088_a_at) / RFU OLFML3 (11715873_a_at) / Fold change /veh OLFML3 (11715873_a_at) / RFU LOC100653217 /// NTM (11731650_a_at) / Fold change /veh LOC100653217 /// NTM (11731650_a_at) / RFU MAPK11 (11762145_a_at) / Fold change /veh MAPK11 (11762145_a_at) / RFU FIZ1 (11724087_x_at) / Fold change /veh FIZ1 (11724087_x_at) / RFU OASL (11726364_x_at) / Fold change /veh OASL (11726364_x_at) / RFU SOX15 (11748057_x_at) / Fold change /veh SOX15 (11748057_x_at) / RFU CD79A (11719716_a_at) / Fold change /veh CD79A (11719716_a_at) / RFU HIST1H1D (11736915_at) / Fold change /veh HIST1H1D (11736915_at) / RFU CASKIN2 (11723855_a_at) / Fold change /veh CASKIN2 (11723855_a_at) / RFU LOC730098 (11760151_x_at) / Fold change /veh LOC730098 (11760151_x_at) / RFU OR4N2 (11742367_at) / Fold change /veh OR4N2 (11742367_at) / RFU PRRT2 (11749266_a_at) / Fold change /veh PRRT2 (11749266_a_at) / RFU SNX32 (11753110_a_at) / Fold change /veh SNX32 (11753110_a_at) / RFU CDHR5 (11726645_a_at) / Fold change /veh CDHR5 (11726645_a_at) / RFU RCAN1 (11760418_a_at) / Fold change /veh RCAN1 (11760418_a_at) / RFU FAM167A (11723789_a_at) / Fold change /veh FAM167A (11723789_a_at) / RFU FAM26E (11764081_at) / Fold change /veh FAM26E (11764081_at) / RFU ISYNA1 (11749810_s_at) / Fold change /veh ISYNA1 (11749810_s_at) / RFU ACY1 (11761880_at) / Fold change /veh ACY1 (11761880_at) / RFU 11764098_at / Fold change /veh 11764098_at / RFU SAMD14 (11745864_x_at) / Fold change /veh SAMD14 (11745864_x_at) / RFU NPB (11741838_a_at) / Fold change /veh NPB (11741838_a_at) / RFU TMPRSS6 (11731388_a_at) / Fold change /veh TMPRSS6 (11731388_a_at) / RFU KRTAP10-2 (11738614_at) / Fold change /veh KRTAP10-2 (11738614_at) / RFU ARHGAP8 /// PRR5-ARHGAP8 (11727945_x_at) / Fold change /veh ARHGAP8 /// PRR5-ARHGAP8 (11727945_x_at) / RFU KRTAP5-7 /// NADSYN1 (11734609_at) / Fold change /veh KRTAP5-7 /// NADSYN1 (11734609_at) / RFU RASL12 (11751679_a_at) / Fold change /veh RASL12 (11751679_a_at) / RFU CDKN2B (11736163_a_at) / Fold change /veh CDKN2B (11736163_a_at) / RFU PRF1 (11729649_at) / Fold change /veh PRF1 (11729649_at) / RFU, ZNF638 /// ZNF638-IT1 / Fold change vs veh, ZNF638 /// ZNF638-IT1 / RFU, PANK3 / Fold change vs veh, PANK3 / RFU, SH3YL1 / Fold change vs veh, SH3YL1 / RFU, ZEB2 / Fold change vs veh, ZEB2 / RFU, NRIP1 / Fold change vs veh, NRIP1 / RFU, PTTG1IP / Fold change vs veh, PTTG1IP / RFU, CAPN2 / Fold change vs veh, CAPN2 / RFU, MED14 / Fold change vs veh, MED14 / RFU, SNORA58 / Fold change vs veh, SNORA58 / RFU, C1orf63 / Fold change vs veh, C1orf63 / RFU, LRRFIP1 / Fold change vs veh, LRRFIP1 / RFU, NDUFAF7 / Fold change vs veh, NDUFAF7 / RFU, SLC12A2 / Fold change vs veh, SLC12A2 / RFU, IBTK / Fold change vs veh, IBTK / RFU, ESF1 / Fold change vs veh, ESF1 / Fold change vs veh, TMEM50B / RFU, TAOK1 / Fold change vs veh, TAOK1 / RFU, ACBD3 / Fold change vs veh, ACBD3 / RFU, TMA16 / Fold change vs veh, TMA16 / RFU, RWDD3 / Fold change vs veh, RWDD3 / RFU, BCAT1 / Fold change vs veh, BCAT1 / RFU, EDEM3 / Fold change vs veh, EDEM3 / RFU, TMEM33 / Fold change vs veh, TMEM33 / RFU, WDR75 / Fold change vs veh, WDR75 / RFU, AHCTF1 / Fold change vs veh, AHCTF1 / RFU, TFRC / Fold change vs veh, TFRC / RFU, ZDHHC17 / Fold change vs veh, ZDHHC17 / RFU, NOM1 / Fold change vs veh, NOM1 / RFU, ARL8B / Fold change vs veh, ARL8B / RFU, ZBTB11 / Fold change vs veh, ZBTB11 / RFU, TAMM41 / Fold change vs veh, TAMM41 / RFU, KIAA1704 /// LOC100996395 / Fold change vs veh, KIAA1704 /// LOC100996395 / RFU, ING1 / Fold change vs veh, ING1 / RFU, TRMT61B / Fold change vs veh, TRMT61B / RFU, FUBP3 / Fold change vs veh, FUBP3 / RFU, TP53 / Fold change vs veh, TP53 / RFU, TNKS2 / Fold change vs veh, TNKS2 / RFU, ZFP14 / Fold change vs veh, ZFP14 / RFU, ACTR2 / Fold change vs veh, ACTR2 / RFU, PPP3R1 / Fold change vs veh, PPP3R1 / RFU, PIK3R1 / Fold change vs veh, PIK3R1 / RFU, HNRNPA1 / Fold change vs veh, HNRNPA1 / RFU, RNF170 / Fold change vs veh, RNF170 / RFU, ZNF28 / Fold change vs veh, ZNF28 / RFU, RNGTT / Fold change vs veh, RNGTT / RFU, OGT / Fold change vs veh, OGT / RFU, BRD1 / Fold change vs veh, BRD1 / RFU, MARS / Fold change vs veh, MARS / RFU, ZNF655 / Fold change vs veh, ZNF655 / RFU, FAHD1 / Fold change vs veh, FAHD1 / RFU, BDP1 / Fold change vs veh, BDP1 / RFU, LRRCC1 / Fold change vs veh, LRRCC1 / RFU, ARID1A / Fold change vs veh, ARID1A / RFU, ZNF146 / Fold change vs veh, ZNF146 / RFU, ZNF330 / Fold change vs veh, ZNF330 / RFU, GPN3 / Fold change vs veh, GPN3 / RFU, C9orf123 / Fold change vs veh, C9orf123 / RFU, N4BP2L2 / Fold change vs veh, N4BP2L2 / RFU, ARFIP1 / Fold change vs veh, ARFIP1 / RFU, FAM179B / Fold change vs veh, FAM179B / RFU, BCL10 / Fold change vs veh, BCL10 / RFU, UHRF1BP1L / Fold change vs veh, UHRF1BP1L / RFU, BET1 / Fold change vs veh, BET1 / RFU, CNOT2 / Fold change vs veh, CNOT2 / RFU, ZNF268 / Fold change vs veh, ZNF268 / Fold change vs veh, ZNF507 / RFU, DGCR2 / Fold change vs veh, DGCR2 / RFU, WDSUB1 / Fold change vs veh, WDSUB1 / Fold change vs veh, HSP90B1 /// MIR3652 / RFU, ADSS / Fold change vs veh, ADSS / RFU, GK / Fold change vs veh, GK / RFU, ZNF148 / Fold change vs veh, ZNF148 / RFU, TAF9 / Fold change vs veh, TAF9 / RFU, SLC1A5 / Fold change vs veh, SLC1A5 / RFU, SLMO2 / Fold change vs veh, SLMO2 / RFU, ABCC4 / Fold change vs veh, ABCC4 / RFU, LOC101060439 /// RAP1B / Fold change vs veh, LOC101060439 /// RAP1B / RFU, RFX7 / Fold change vs veh, RFX7 / RFU, GTPBP10 / Fold change vs veh, GTPBP10 / RFU, CNEP1R1 / Fold change vs veh, CNEP1R1 / RFU, BIVM-ERCC5 /// ERCC5 / Fold change vs veh, BIVM-ERCC5 /// ERCC5 / RFU, ILF3 / Fold change vs veh, ILF3 / RFU 11762660_at / Fold change /veh 11762660_at / RFU VCAN (11757783_s_at) / Fold change /veh VCAN (11757783_s_at) / RFU DDX43 (11728927_at) / Fold change /veh DDX43 (11728927_at) / RFU KRT8 (11758188_x_at) / Fold change /veh KRT8 (11758188_x_at) / RFU NKD1 (11759106_at) / Fold change /veh NKD1 (11759106_at) / RFU SRD5A1 (11742802_a_at) / Fold change /veh SRD5A1 (11742802_a_at) / RFU TPSAB1 /// TPSB2 (11721975_s_at) / Fold change /veh TPSAB1 /// TPSB2 (11721975_s_at) / RFU GSTM3 (11746129_a_at) / Fold change /veh GSTM3 (11746129_a_at) / RFU IL23R (11737362_x_at) / Fold change /veh IL23R (11737362_x_at) / RFU TMEM51 (11727254_a_at) / Fold change /veh TMEM51 (11727254_a_at) / RFU PIWIL2 (11732686_x_at) / Fold change /veh PIWIL2 (11732686_x_at) / RFU ORM1 (11744905_x_at) / Fold change /veh ORM1 (11744905_x_at) / RFU CCDC152 (11743942_at) / Fold change /veh CCDC152 (11743942_at) / RFU ECM1 (11717891_a_at) / Fold change /veh ECM1 (11717891_a_at) / RFU IL23R (11748794_a_at) / Fold change /veh IL23R (11748794_a_at) / RFU TNFAIP8L3 (11732012_x_at) / Fold change /veh TNFAIP8L3 (11732012_x_at) / RFU MBOAT4 (11741988_at) / Fold change /veh MBOAT4 (11741988_at) / RFU 11764193_at / Fold change /veh 11764193_at / RFU TMEM53 (11763286_at) / Fold change /veh TMEM53 (11763286_at) / RFU MAGEB2 (11727129_at) / Fold change /veh MAGEB2 (11727129_at) / RFU TMEM200A (11744735_a_at) / Fold change /veh TMEM200A (11744735_a_at) / RFU CCDC152 (11751479_a_at) / Fold change /veh CCDC152 (11751479_a_at) / RFU FAM211A (11726209_a_at) / Fold change /veh FAM211A (11726209_a_at) / RFU RGS16 (11746705_a_at) / Fold change /veh RGS16 (11746705_a_at) / RFU VCAN (11755009_s_at) / Fold change /veh VCAN (11755009_s_at) / RFU RHOB (11743442_s_at) / Fold change /veh RHOB (11743442_s_at) / RFU RGS16 (11720943_a_at) / Fold change /veh RGS16 (11720943_a_at) / RFU RGS16 (11720944_at) / Fold change /veh RGS16 (11720944_at) / RFU, VPS4B / Fold change vs veh, VPS4B / RFU, CREB1 / Fold change vs veh, CREB1 / RFU, DNAJC13 / Fold change vs veh, DNAJC13 / RFU, GNAQ / Fold change vs veh, GNAQ / RFU, CDK5R1 / Fold change vs veh, CDK5R1 / RFU, ZRANB3 / Fold change vs veh, ZRANB3 / RFU, CUL4A / Fold change vs veh, CUL4A / RFU, CCNY / Fold change vs veh, CCNY / RFU, UFL1 / Fold change vs veh, UFL1 / RFU, COG3 / Fold change vs veh, COG3 / RFU, DIAPH2 / Fold change vs veh, DIAPH2 / RFU, SKA2 / Fold change vs veh, SKA2 / RFU, AFF3 / Fold change vs veh, AFF3 / RFU, LMF1 / Fold change vs veh, LMF1 / RFU, IPO11 / Fold change vs veh, IPO11 / RFU, DFFB / Fold change vs veh, DFFB / RFU, FOXP1 / Fold change vs veh, FOXP1 / RFU, CARD8 / Fold change vs veh, CARD8 / RFU, STRN3 / Fold change vs veh, STRN3 / RFU, ADK / Fold change vs veh, ADK / RFU, RASSF2 / Fold change vs veh, RASSF2 / RFU, WIPF1 / Fold change vs veh, WIPF1 / RFU, LARP1B / Fold change vs veh, LARP1B / RFU, RASA1 / Fold change vs veh, RASA1 / RFU, RB1 / Fold change vs veh, RB1 / RFU, PPFIA1 / Fold change vs veh, PPFIA1 / RFU, MAT2A / Fold change vs veh, MAT2A / RFU, CCT5 / Fold change vs veh, CCT5 / RFU, WDR92 / Fold change vs veh, WDR92 / RFU, CUX1 / Fold change vs veh, CUX1 / RFU, TTC7A / Fold change vs veh, TTC7A / RFU, TMEM135 / Fold change vs veh, TMEM135 / RFU, DEPTOR / Fold change vs veh, DEPTOR / RFU, CPM / Fold change vs veh, CPM / RFU, DNAJB6 / Fold change vs veh, DNAJB6 / RFU, CACNA2D3 / Fold change vs veh, CACNA2D3 / RFU, DTX4 / Fold change vs veh, DTX4 / RFU, TFCP2 / Fold change vs veh, TFCP2 / RFU, GMCL1 /// GMCL1P1 / Fold change vs veh, GMCL1 /// GMCL1P1 / RFU, AEBP2 / Fold change vs veh, AEBP2 / RFU, SNHG1 /// SNORD22 /// SNORD25 /// SNORD26 /// SNORD27 /// SNORD28 /// SNORD29 /// SNORD31 / Fold change vs veh, SNHG1 /// SNORD22 /// SNORD25 /// SNORD26 /// SNORD27 /// SNORD28 /// SNORD29 /// SNORD31 / Fold change (Aza/veh), C12orf56 (ProbeSet 11735607_a_at) / Fold change (ACY-1035/veh), C12orf56 (ProbeSet 11735607_a_at) / Fold change (Aza/veh), FGFR1OP (ProbeSet 11751329_s_at) / Fold change (ACY-1035/veh), FGFR1OP (ProbeSet 11751329_s_at) / Fold change (Aza/veh), VPS36 (ProbeSet 11739960_a_at) / Fold change (ACY-1035/veh), VPS36 (ProbeSet 11739960_a_at) / RFU SYPL1 (11715823_x_at) / Fold change /veh SYPL1 (11715823_x_at) / RFU IGFBP7 (11715501_s_at) / Fold change /veh IGFBP7 (11715501_s_at) / RFU REEP3 (11722064_at) / Fold change /veh REEP3 (11722064_at) / RFU IGLL1 (11728026_x_at) / Fold change /veh IGLL1 (11728026_x_at): dose or concentration left out as unconfirmed",
  "settings": "ProbeSet 11759094_a_at; LIST D",
  "data": [
    {"smiles": "Nc1ccc(-c2cccs2)cc1NC(=O)c1ccc2c(c1)cc(C1CC1)n2CCN1CCOCC1", "note": "[ACY-1035]", "values": [
      {"measurement": "RFU, GNAQ", "result": 492.28, "unit": "RFU"}
    ]}
  ]
}
